Laboratory results published in PMC7216583 (Parasites & Vectors, 2020).
Counter-ions that a name gives are not always drawn. Like-named read-outs stand apart in the source and are kept apart here.

Test system: Toxoplasma gondii RH-2F tachyzoites
Experiment: microbe, parasite or virus in culture
Conditions: 72 h
[1] = read-out: Parasite inhibition (%) mean
[2] = read-out: Parasite inhibition (%) mean, preliminary screen of compound library, mean
[3] = read-out: Parasite inhibition (%) mean, preliminary screen, mean

SMILES	inhibition of growth at 5 µM [2] [%]	inhibition of growth at 5 µM [3] [%]	further results
CNC[C@H](O)c1ccc(O)c(O)c1 [L-Adrenaline (Epinephrine)]	–	–	inhibition of growth at 5 µM [1]: 0.4%
O[C@@H](COc1cccc2ncccc12)CN1CCN([C@@H]2c3ccccc3[C@@H]3[C@H](c4ccccc42)C3(F)F)CC1 [LY335979 (Zosuquidar 3HCl)]	–	–	inhibition of growth at 5 µM [1]: -7.9%
Cc1cccc(-c2nn3c(c2-c2ccnc4ccc(C(N)=O)cc24)CCC3)n1 [LY2157299]	5.2	–	–
Cc1cnc(NC(=O)Nc2cc(Br)c(C)cc2OC[C@@H]2CNCCO2)cn1 [LY2603618 (IC-83)]	22.7	–	–
NC1=N[C@@]2(c3cc(NC(=O)c4ccc(F)cn4)ccc3F)COC[C@H]2CS1 [LY2886721]	–	35.7	–
CN(C(=O)c1ccc(F)cc1C(F)(F)F)C1CCN(c2nnc(-c3ccnn3C)c3ccccc23)CC1 [LY2940680]	–	2.1	–
CS(=O)(=O)CCNCc1ccc(-c2ccc3ncnc(Nc4ccc(OCc5cccc(F)c5)c(Cl)c4)c3c2)o1 [Lapatinib Ditosylate (Tykerb)]	–	3.3	–
c1ccc([C@H]2CN3CCSC3=N2)cc1 [Levamisole Hydrochloride (Ergamisol)]	–	–	inhibition of growth at 5 µM [1]: 63.9%
N[C@@H](Cc1ccc(O)c(O)c1)C(=O)O [Levodopa (Sinemet)]	12.1	–	–
C[C@H]1CNCCc2ccc(Cl)cc21 [Lorcaserin HCl]	34.8	–	–
CNC(=O)c1ccc(N2C(=S)N(c3ccc(C#N)c(C(F)(F)F)c3)C(=O)C2(C)C)cc1F [MDV3100 (Enzalutamide)]	–	35.7	–
C=CCn1c(=O)c2cnc(Nc3ccc(N4CCN(C)CC4)cc3)nc2n1-c1cccc(C(C)(C)O)n1 [MK-1775]	–	0	–
NC1(c2ccc(-c3nc4ccn5c(=O)[nH]nc5c4cc3-c3ccccc3)cc2)CCC1 [MK-2206 2HCl]	–	45.5	–
O=C(O)[C@]1(Cc2cccc(Nc3nccs3)n2)CC[C@@H](Oc2cccc(Cl)c2F)CC1 [MK-5108 (VX-689)]	60.4	–	–
O=C(O)Cn1nnc(-c2cc(N3CCC(Oc4cc(F)ccc4Br)CC3)no2)n1 [MK-8245]	–	14.5	–
O=C(O)c1ccc(Nc2ncc3c(n2)-c2ccc(Cl)cc2C(c2c(F)cccc2F)=NC3)cc1 [MLN8054]	–	58.4	–
COc1cc(Nc2ncc3c(n2)-c2ccc(Cl)cc2C(c2c(F)cccc2OC)=NC3)ccc1C(=O)O [MLN8237 (Alisertib)]	–	58.9	–
CC(C)OC(=O)C(C(=O)OC(C)C)=C1SC=CS1 [Malotilate]	0.5	–	–
COC(=O)C1=C(C)NC(C)=C(C(=O)OCCN2CCN(C(c3ccccc3)c3ccccc3)CC2)C1c1cccc([N+](=O)[O-])c1 (centres unmarked) [Manidipine (Manyper)]	1.1	–	–
CN1CCN(c2c(F)cc3c(=O)c(C(=O)O)cn4c3c2OCN4C)CC1 [Marbofloxacin]	8.7	–	–
CN1CCN2c3ncccc3Cc3ccccc3C2C1 (centres unmarked) [Mirtazapine (Remeron, Avanza)]	33.1	–	–
O=C(O)[C@H](CC(=O)N1C[C@H]2CCCC[C@H]2C1)Cc1ccccc1 [Mitiglinide calcium]	–	0.9	–
CCOC(=O)[C@H](CCc1ccccc1)N[C@@H](C)C(=O)N1Cc2cc(OC)c(OC)cc2C[C@H]1C(=O)O [Moexipril HCl]	–	35.3	–
Cc1ccc(S(=O)(=O)OCC(=O)Nc2ccc(C(=O)O)c(O)c2)cc1 [NSC 74859 (S3I-201)]	–	-25.8	–

SMILES	inhibition of growth at 5 µM [2] [%]	inhibition of growth at 5 µM [3] [%]	further results
Fc1cc(-c2cccc3ncc(-c4cnn(C5CCNCC5)c4)nc23)cc(F)c1CN1CCOCC1 [NVP-BSK805 2HCl]	14.6	–	–
CNS(=O)(=O)CCc1ccc2[nH]cc(C3CCN(C)CC3)c2c1 [Naratriptan HCl]	–	0.6	–
O[C@H](CNC[C@@H](O)[C@H]1CCc2cc(F)ccc2O1)[C@@H]1CCc2cc(F)ccc2O1 [Nebivolol (Bystolic)]	–	68.9	–
NC(=O)Cc1cccc(C(=O)c2ccccc2)c1N [Nepafenac]	-10.3	–	–
CCOc1cc2ncc(C#N)c(Nc3ccc(OCc4ccccn4)c(Cl)c3)c2cc1NC(=O)/C=C/CN(C)C [Neratinib (HKI-272)]	–	-11.6	–
Cc1cn(-c2cc(NC(=O)c3ccc(C)c(Nc4nccc(-c5cccnc5)n4)c3)cc(C(F)(F)F)c2)cn1 [Nilotinib (AMN-107)]	–	0.1	–
C[C@](O)(COc1ccc(C#N)cc1)C(=O)Nc1ccc(C#N)c(C(F)(F)F)c1 [Ostarine (MK-2866)]	–	0.7	–
CCCCCCCCOc1ccccc1C(=O)Nc1ccc(C(=O)OCC[N+](C)(CC)CC)cc1 [Otilonium Bromide]	0.7	–	–
CCN(CC)CC#CCOC(=O)C(O)(c1ccccc1)C1CCCCC1 (centres unmarked) [Oxybutynin (Ditropan)]	–	-3.2	–
CN(C)[C@@H]1C(O)=C(C(N)=O)C(=O)[C@@]2(O)C(=O)C3=C(O)c4c(O)cccc4[C@@](C)(O)[C@H]3[C@H](O)[C@@H]12 [Oxytetracycline (Terramycin)]	33.5	–	–
C=CC(=O)N1CCC[C@@H](n2nc(-c3ccc(Oc4ccccc4)cc3)c3c(N)ncnc32)C1 [PCI-32765 (Ibrutinib)]	-0.8	–	–
C=CC(=O)Nc1ccc2ncnc(Nc3cccc(Br)c3)c2c1 [PD168393]	-0.1	–	–
O=C(NOCC(O)CO)c1cc(Br)c(F)c(F)c1Nc1ccc(I)cc1F (centres unmarked) [PD318088]	–	-12.9	–
O=C(NOC[C@H](O)CO)c1ccc(F)c(F)c1Nc1ccc(I)cc1F [PD0325901]	–	-6.9	–
CCCN1CCO[C@@H]2c3cc(O)ccc3OC[C@@H]21 [PD 128907 HCl]	–	1.8	–
O=C(Nc1cccnc1)N1CCC(Cc2cccc(Oc3ccc(C(F)(F)F)cn3)c2)CC1 [PF-3845]	6.7	–	–
CN(C)C1CCN(C(=O)c2ccc(NC(=O)Nc3ccc(-c4nc(N5CCOCC5)nc(N5CCOCC5)n4)cc3)cc2)CC1 [PF-05212384 (PKI-587)]	40.5	–	–
COc1ccccc1S(=O)(=O)Nc1ccc2c(c1)CN(C)C(=O)N2 [PFI-1]	–	2.2	–
Nc1ncnc2c1c(-c1cnc3[nH]ccc3c1)nn2C1CCCC1 [PP-121]	36.8	–	–
C[C@@]12C[C@@]3(O)O[C@@H](O1)[C@]1(COC(=O)c4ccccc4)[C@H]3C[C@@]12O[C@@H]1O[C@H](CO)[C@@H](O)[C@H](O)[C@H]1O [Paeoniflorin]	0.7	–	–
CCOc1cc2ncc(C#N)c(Nc3ccc(F)c(Cl)c3)c2cc1NC(=O)/C=C/CN(C)C [Pelitinib (EKB-569)]	–	-28.8	–
N=C(N)c1ccc(OCCCCCOc2ccc(C(=N)N)cc2)cc1 [Pentamidine HCl]	23.6	–	–
O=C1c2ccccc2C(=O)C1c1ccccc1 [Phenindione (Rectadione)]	-1.7	–	–
CC[C@@H]1/C=C(\C)C[C@H](C)C[C@H](OC)[C@H]2O[C@@](O)(C(=O)C(=O)N3CCCC[C@H]3C(=O)O[C@H](/C(C)=C/[C@@H]3CC[C@H](Cl)[C@H](OC)C3)[C@H](C)[C@@H](O)CC1=O)[C@H](C)C[C@@H]2OC [Pimecrolimus]	-12.9	–	–

SMILES	inhibition of growth at 5 µM [2] [%]	inhibition of growth at 5 µM [3] [%]	further results
Cc1ccc(C(=O)Nc2ccc(CN3CCN(C)CC3)c(C(F)(F)F)c2)cc1C#Cc1cnc2cccnn12 [Ponatinib (AP24534)]	–	49.3	–
CC(C)N(CCNC(=O)CN1CCCC1=O)C(C)C [Pramiracetam]	24.1	–	–
C[C@]12C=CC(=O)C=C1CC[C@@H]1[C@H]2C(=O)C[C@@]2(C)[C@H]1CC[C@@]2(O)C(=O)CO [Prednisone (Adasone)]	33.8	–	–
CCCNC(C)C(=O)Nc1ccccc1C (centres unmarked) [Prilocaine]	-21.8	–	–
CN(C)C(=O)Oc1ccc[n+](C)c1 [Pyridostigmine Bromide (Mestinon)]	–	-6.5	–
C#CCN[C@@H]1CCc2ccccc21 [Rasagiline mesylate]	–	–	inhibition of growth at 5 µM [1]: 13.3%
COc1cc(OC)c(/C=C/S(=O)(=O)Cc2ccc(OC)c(NCC(=O)O)c2)c(OC)c1 [Rigosertib (ON-01910)]	–	0.1	–
Cc1c(C(=O)NN2CCCCC2)nn(-c2ccc(Cl)cc2Cl)c1-c1ccc(Cl)cc1 [Rimonabant (SR141716)]	5.1	–	–
CCN(C)C(=O)Oc1cccc([C@H](C)N(C)C)c1 [Rivastigmine tartrate (Exelon)]	–	22.8	–
O=C(CCCCCCNC(=O)c1cnc(N(c2ccccc2)c2ccccc2)nc1)NO [Rocilinostat (ACY-1215)]	2.9	–	–
CC[C@H](CO)Nc1nc(NCc2ccccc2)c2ncn(C(C)C)c2n1 [Roscovitine (Seliciclib, CYC202)]	–	12.2	–
CC(C)c1nc(N(C)S(C)(=O)=O)nc(-c2ccc(F)cc2)c1/C=C/[C@@H](O)C[C@@H](O)CC(=O)O [Rosuvastatin calcium (Crestor)]	-0.1	–	–
CNCc1ccc(-c2[nH]c3cc(F)cc4c3c2CCNC4=O)cc1 [Rucaparib (AG-014699 , PF-01367338)]	–	26.1	–
NC(=O)c1cn(Cc2c(F)cccc2F)nn1 [Rufinamide (Banzel)]	–	1.7	–
C[C@H]1CCO[C@H]2Cn3cc(C(=O)NCc4ccc(F)cc4F)c(=O)c(O)c3C(=O)N21 [S/GSK1349572 (GSK1349572)]	0.2	–	–
COc1ccc(NS(=O)(=O)c2sc3ccc(Cl)cc3c2C)cc1N1CCNCC1 [SB 271046]	-0.6	–	–
CC1CCN(CC[C@H]2CCCN2S(=O)(=O)c2cccc(O)c2)CC1 [SB-269970 HCl]	-10.7	–	–
O=S(=O)(c1ccccc1)c1cnc2c(N3CCNCC3)cccc2c1 [SB-742457]	0.6	–	–
Cn1cc(-c2ccc3nnc(Sc4ccc5ncccc5c4)n3n2)cn1 [SGX-523]	–	45.5	–
CC1(C)CC(=O)c2c(C(F)(F)F)nn(-c3ccc(C(N)=O)c(N[C@H]4CC[C@H](O)CC4)c3)c2C1 [SNX-2112]	9.9	–	–
Cc1cccc(Nc2nc(-c3ccncc3)cs2)c1 [STF-62247]	–	15.2	–
N#C[C@@H]1C[C@@H]2C[C@H]2N1C(=O)[C@@H](N)C12CC3CC(CC(O)(C3)C1)C2 [Saxagliptin (BMS-477118,Onglyza)]	–	9.7	–
Cc1cc(C)c(/C=C2\C(=O)Nc3ccccc32)[nH]1 [Semaxanib (SU5416)]	-78.8	–	–
